Reference: patent US20030055104A1, “Method, composition and kit to remove lice ova from the hair” (priority 2000, published 2003)

Experiments:
[1] = cited from earlier work
[2] = tested on: nit attached to human hair strand; experiment: Force required to dislodge a nit from a treated hair strand with a nit comb (INSTRON 1123 / CORREX Gram Gage); parameters: species or system lice; conditions: in vitro studies
Procedure: FIG. 1 is a diagram of the test setup whereby the force required to dislodge a nit from a human hair strand with a nit comb was measured.
FIG. 2 is a view showing the positioning of the nit and hair strand between the teeth of the comb shown in the test setup of FIG. 1.
The nit-loosening effectiveness of the novel compositions and the methods of treatment employing them were tested extensively using an INSTRON® 1123 Universal Testing Instrument (Instron Corp. Canton, Mass.). This instrument, in conjunction with a CORREX® Gram Gage (SPI, Switzerland), measures the force required to loosen nits from a hair shaft and records it on paper.
Laboratory tests were performed to measure the decrease in the combing force required to remove nits from hair strands treated with various compositions of the invention as compared with controls and with prior art egg-loosening compositions.
1. Hair strand 10 with nit 12 attached.
2. Fine tooth plastic nit comb 14.
3. Controls and test compositions.
4. INSTRON® 1123 Universal Testing Instrument 16 (Instron Corp., Canton, Mass.) with a 0-50 kg load cell 18.
5. CORREX® Gram Gage 20-2-15 g with flat tip (SPI, Switzerland).
6. Clamp plate assembly 22.
7. […]
e) Start the Instron, and the force required to loosen the nits will be recorded by the paper chart recorder 30, and can also be read on the Gram Gage 20. […]

SMILES: CO[C@H]1CO[C@H]2[C@@H]1OC[C@H]2OC [Dimethyl isosorbide, 1,4:3,6 dianhydro-2,5-di-o-methyl-D-glucitol]
- solubility (in words) [1]: water and oil-soluble
- nit-loosening effectiveness (in words) [2]: good nit-loosening utility
